Patent US20150125550A1, “APPLICATION OF 2,9-DI-SEC-BUTYL-1,10-PHENANTHROLINE AS A GLIOBLASTOMA TUMOR CHEMOTHERAPY” (priority 2013, published 2015)

Columns and labels:
[1] = GSH buffer solution; cited from earlier work
A549 lung cancer cells = test: SRB colorimetric assay, A549 lung cancer cells, 72 hours; format: cell-based, human; details: for IC50: A549, 72 hours, average ± SD of three curves; for IC50 times lower than cisplatin: A549
Description: A549 cells were cultured in RPMI media supplemented with 10% Fetal Bovine Serum and 1% nonessential amino acids. Sub-culturing was carried out every 3-4 days and was completed by removing the supernatant media and treating the adherent cells with 1.0 mL of a 0.25% (w/v) Trypsin/0.5 mM EDTA solution. The cells were then treated for approximately 3 minutes in a 37° C. incubator under a 5% CO2 atmosphere. Trypsinization was stopped by the addition of 7.0 mL of cell culture media, the suspended cells were collected by centrifugation, and the resulting cell pellet was re-suspended in fresh cell culture media. The cells were then diluted 1:4 by volume and incubated in a 37° C. incubator with 5% CO2. Cells were grown to 80-90% confluency prior to being used in the SRB colorimetric assays.
To test the effects of compounds 1-18 on the growth of A549 lung cancer cells, SRB cytotoxicity assays were done as described by Skehan et al. Cells were maintained in RPMI media as described above, collected, and diluted so that cells could be seeded in 96-well plates at a density of 4,000 cells/well. The 96-well plate was incubated overnight at 37° C. under a 5% CO2 atmosphere. Subsequently, sterifiltered DMSO stock solutions of the drugs were added to the wells in various concentrations (0-25 μM) and the 96-well plate was incubated at 37° C. under a 5% CO2 for an additional 72 hours. The supernatant cell culture medium was then removed and the cells were fixed for 1 hour with 10% cold trichloroacetic acid (100 μL per well). The trichloroacetic acid was discarded and the plates were washed 5 times with de-ionized water and air dried. After being stained with 0.4% SRB ([…]) and incubated at room temperature for 10 minutes, the cells were washed 5 times with 1% acetic acid and air dried. The bound SRB was dissolved in 10 mM unbuffered Tris, pH 10.5 ([…]) for 10 minutes at room temperature, and the absorbance at 492 nm was measured using a microplate reader. The percent cell growth was then calculated based upon the absorbance values relative to control samples not containing any drug. Each drug concentration was done in triplicate to yield a percent growth vs. drug concentration curve, and these growth curves were subsequently repeated two additional times. The growth curves from the three experiments were then plotted in GraphPad Prism and best-fit curves were used to generate the IC50 values for each curve.

GL-26 glioma cells [2] = test: SRB growth assay, GL-26 glioma cells, 48 hr drug incubation; format: cell-based, murine (C57BL/6); details: Mus musculus, read-out: GL-26 cell growth inhibition
Description: The murine (C57BL/6) glioma cell line, GL-26, which is highly tumorigenic in the C57BL/6 mice. GL-26 cells were cultured in DMEM/F12 supplemented with 10% FCS, 1% penicillin/streptomycin, 1% L-glutamine and 1% non-essential amino acids. Human foreskin fibroblasts (HFFs) were cultured in DMEM/F12 supplemented with 10% FCS and 1% penicillin/streptomycin. Primary murine astrocytes were purified from C57BL/6 neonate brains and cultured in DMEM/F12 supplemented with 10% FCS, 1% non-essential amino acids, 1% Lglutamine, 50 IU/ml penicillin, […] and 10 mM Hepes buffer.
The sulforhodamine B (SRB) cytotoxicity assays were adapted from Skehan et al. (22). Briefly, either HFF, primary astrocytes or GL-26 cells were plated in 96-well plates at a density of 4,000 cells/well in a volume of 100 µL overnight at 37° C. and 5% CO2. DMSO stock solutions of SBP, MSBP or TMZ were used at a concentration range of 0.1-25 μM for 48 hr before the supernatant was discarded and the cells were fixed for 1 hr with 10% cold trichloroacetic acid (100 μL, per well). Cells used in recovery assay received fresh media for 48 hrs following the 48 hr drug incubation. The plate was then washed 5 times with de-ionized water, air dried, and stained with 0.4% SRB for 10 min (50 μL, per well). After washing 5 times in 1% acetic acid and air-drying, bound SRB was dissolved in 10 mM unbuffered Tris base (pH 10.5; 100 μL, per well). Bound SRB was then read by absorbance at 492 nm on a SpectraMax plate reader (Molecular Devices). The percent survival was then calculated based upon the absorbance values relative to control wells (0 μM SBP in 0.1% DMSO).

GL-26 glioma cells [3] = test: SRB growth assay, cisplatin/SBP combination; format: cell-based, murine (C57BL/6); details: 0.8 μM cisplatin alone, 48 hours
Description: The murine (C57BL/6) glioma cell line, GL-26, which is highly tumorigenic in C57BL/6 mice, were used for these in-vitro experiments. GL-26 cells were cultured in DMEM/F12 supplemented with 10% FCS, 1% penicillin/streptomycin, 1% L-glutamine and 1% non-essential amino acids.
Sulforhodamine B (SRB) cytotoxicity assays were utilized to assess antitumor activity. GL-26 cells were plated in 96 well plates at a density of 4,000 cells/well (in a total volume of 100 µL) and incubated for 24 hours in a humidified atmosphere of 5% CO2 at 37° C. GL-26 cells were then exposed to Cisplatin at 0-25 μM with either 0.1 or 0.4 μM SBP for 48 hours. The supernatant was then discarded and the GL-26 cells were fixed with 10% cold trichloroacetic acid for 1 hour (100 μL/well). The cells were washed 5 times with de-ionized water, air dried, and stained with 0.4% SRB for 10 min (50 μL/well). GL-26 cells were then washed 5 times in 1% acetic acid and allowed to air dry. The bound SRB was dissolved in a 10 mM unbuffered Tris base (pH 10.5; 100 μL per well) and quantified by the absorbance at 492 nm using the SpectraMax plate reader (Molecular Devices). The fraction of cell growth was determined based upon the absorbance values in comparison to the control wells (0 μM SBP in 0.5% DMSO). All cell growth assays were done in a minimum of triplicates.

[4] = Glutathione stability experiments (UV-visible spectra); format: physicochemical; details: 5.0×10^−5 M complex, one mole equivalent GSH, phosphate buffer pH 7.4, 15 hours
Description: 5.0×10^−3 M stock solutions of compounds 10-18 were prepared in acetonitrile or DMSO, and subsequently diluted in phosphate buffer (0.10M, pH 7.4) to yield a final gold complex concentration of 5.0×10^−5 M. A stock solution of reduced glutathione in phosphate buffer (0.10M, pH 7.4) was used to add one mole equivalent of GSH to the final gold complex solution, and UV-visible spectra of compounds 10-18 were subsequently collected every hour over a 15 hour period.

Row | Compound | IC50 (A549 lung cancer cells) [nM] | IC50 (A549 lung cancer cells; Homo sapiens) [nM] | other results
1 | Cc1c(C)c2cccnc2c2ncccc12.[Cl][Au+][Cl] [[(^5,6-di-methylphen)AuCl2]^+, reference compound] |  |  | stability in the presence of GSH (previous studies) [1]: underwent immediate reduction to gold(0) in the presence of GSH
2 | CCC(C)c1ccc2ccc3c(C)cc(C(C)CC)nc3c2n1 (centres unmarked) [Compound 4, 2,9-di-sec-butyl-4-methyl-1,10-phenanthroline] |  | 700 ± 110 | 
3 | N.N.[Cl][Pt][Cl] [cisplatin, [Pt(NH3)2Cl2], reference compound] | 4670 ± 210 |  | cell growth compared to untreated tumor cells (GL-26 glioma cells [3]): approximately 78%
4 | CCCCc1ccc2ccc3cccnc3c2n1.[Cl][Au]([Cl])[Cl] [Compound 15, (2-mono-n-butyl-phenanthroline)AuCl3] | 370 ± 90 |  | redox stability in the presence of GSH [4]: no reduction to gold(I) or gold(0) occurred; IC50 times lower than cisplatin (A549 lung cancer cells): approximately 12 times; times more active than the free ligand (A549 lung cancer cells; A549 IC50 ratio): ~8 times
5 | CCC(C)c1ccc2ccc3cccnc3c2n1.[Cl][Au]([Cl])[Cl] (centres unmarked) [Compound 14, (2-sec-butyl-1,10-phenanthroline)AuCl3] | 770 ± 70 |  | 
6 | CCCCc1ccc2ccc3cccnc3c2n1 [Compound 6, 2-mono-n-butyl-phenanthroline] |  | 2920 ± 470 | 
7 | (2-mono-sec-butyl-2,2′-bipyridine)AuCl3 [Compound 18] |  |  | Cell Growth @ 12 μM (A549 lung cancer cells; A549, 12 μM): 100% Cell Growth @ 12 μM; reduction of A549 tumor cell growth (A549 lung cancer cells; concentrations used for compounds 1-8 and 10-17): did not reduce tumor cell growth at any of the concentrations
8 | CCCCc1ccc2ccc3ccc(CCCC)nc3c2n1.[Cl][Au]([Cl])[Cl] [Compound 11, (2,9-di-n-butyl-1,10-phenanthroline)AuCl3] | 340 ± 60 |  | IC50 times lower than cisplatin (A549 lung cancer cells): approximately 12 times; times more active than the free ligand (A549 lung cancer cells; A549 IC50 ratio): approximately 3 times
9 | CCC(C)c1ccc2ccc3c(C)cc(C(C)CC)nc3c2n1.[Cl][Au]([Cl])[Cl] (centres unmarked) [Compound 13, (2,9-di-sec-butyl-4-methyl-1,10-phenanthroline)AuCl3] | 4020 ± 320 |  | times less active than the corresponding free ligand (A549 lung cancer cells; A549 IC50 ratio): approximately 6 times

More lines, main results first:

Row | IC50 (A549 lung cancer cells) [nM] | IC50 (A549 lung cancer cells; Homo sapiens) [nM] | Compound | other results
10 | 1470 ± 210 |  | Cc1ccc2ccc3ccc(C)nc3c2n1.[Cl][Au]([Cl])[Cl] [Compound 12, (2,9-di-methyl-1,10-phenanthroline)AuCl3] | 
11 |  | 620 ± 160 | CCC(C)c1ccc2ccc3cccnc3c2n1 (centres unmarked) [Compound 5, 2-sec-butyl-1,10-phenanthroline] | inhibition at 6 µM (GL-26 glioma cells [2]; GL26, 6 μM): 0.6 ± 1.2%; inhibition at 25 µM (GL-26 glioma cells [2]; GL26, 25 μM): 24.7 ± 5%
12 | 1650 ± 130 |  | [Cl][Au]([Cl])[Cl].c1ccc(-c2ccc3ccc4ccc(-c5ccccc5)nc4c3n2)cc1 [Compound 16, (2,9-di-phenyl-1,10-phenanthroline)AuCl3] | 
13 | 580 ± 150 |  | CCC(C)c1ccc2ccc3ccc(C(C)CC)nc3c2n1.[Cl][Au]([Cl])[Cl] (centres unmarked) [Compound 10, (2,9-di-sec-butyl-1,10-phenanthroline)AuCl3] | stability in the presence of GSH (previous studies) [1]: quite stable in the presence of a GSH buffer solution
14 |  | 1870 ± 210 | c1ccc(-c2ccc3ccc4ccc(-c5ccccc5)nc4c3n2)cc1 [Compound 7, 2,9-di-phenyl-1,10-phenanthroline] | 
15 |  | 1350 ± 90 | Cc1ccc2ccc3ccc(C)nc3c2n1 [Compound 3, 2,9-di-methyl-1,10-phenanthroline] | 
16 |  | 1080 ± 280 | CCCCc1ccc2ccc3ccc(CCCC)nc3c2n1 [Compound 2, 2,9-di-n-butyl-1,10-phenanthroline] | 
17 | 1370 ± 110 |  | Cc1cc(-c2ccccc2)nc2c1ccc1ccc(-c3ccccc3)nc12.[Cl][Au]([Cl])[Cl] [Compound 17, (2,9-di-phenyl-4-methtyl-1,10-phenanthroline)AuCl3] | 
18 | 1350 ± 110 |  | Cc1cc(-c2ccccc2)nc2c1ccc1ccc(-c3ccccc3)nc12 [Compound 8, 2,9-di-phenyl-4-methtyl-1,10-phenanthroline] | 
